Measured values: paper PMC2585998 (Molecular cell, 2008)

Target: SpoIVA (IVA; His6-SpoIVA) (Bacillus subtilis, UniProt P35149, K30A)
Assay: ATPase, ADP production by TLC of alpha-32P-ATP
Assay type: biochemical
Details: Walker A mutant, diminished hydrolysis; 10 mM MgCl2, pH 7.5, 37 C

SpoIVA (IVA; His6-SpoIVA), sequence (P35149 whole entry K30A): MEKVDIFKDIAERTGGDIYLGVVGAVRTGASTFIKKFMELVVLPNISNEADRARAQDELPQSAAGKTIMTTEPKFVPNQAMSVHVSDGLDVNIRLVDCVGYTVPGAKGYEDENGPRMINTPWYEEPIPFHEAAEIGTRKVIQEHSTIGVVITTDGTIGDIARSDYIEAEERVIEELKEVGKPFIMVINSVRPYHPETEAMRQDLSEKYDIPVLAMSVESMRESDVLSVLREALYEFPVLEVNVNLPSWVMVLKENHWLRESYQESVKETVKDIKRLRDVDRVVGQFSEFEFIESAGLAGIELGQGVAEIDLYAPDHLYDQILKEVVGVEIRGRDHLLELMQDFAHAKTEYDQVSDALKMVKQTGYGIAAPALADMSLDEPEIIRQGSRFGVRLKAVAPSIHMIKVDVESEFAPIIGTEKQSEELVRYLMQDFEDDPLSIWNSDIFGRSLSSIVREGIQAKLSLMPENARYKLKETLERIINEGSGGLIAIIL

In the case of `Nc1ncnc2c1ncn2[C@@H]1O[C@H](COP(=O)(O)OP(=O)(O)OP(=O)(O)O)[C@@H](O)[C@H]1O` [ATP], the “ATPase, ADP production by TLC of alpha-32P-ATP” value was “Incubation of ATP with IVA^K30A, in contrast, led to the diminished accumulation of ADP”.
